Test results reported in patent US9447100B2, “Substituted pyrazolo[1,5-A] pyrimidines as calcium receptor modulating agents” (Takeda Pharmaceutical Company Limited, priority 2002, dated 2016).
Where a name gives a salt, the structure may show the parent alone.

With CCC(CC)(NC(=O)c1cnn2c1NC(c1ccccc1)CC2(C)C)c1cccc(C(F)(F)F)c1 (stereo not shown) [Example 434, N-(1-ethyl-1-(3-(trifluoromethyl)phenyl)propyl)-7,7-dimethyl-5-phenyl-4,5,6,7-tetrahydropyrazolo[1,5-a]pyrimidine-3-carboxamide] as the compound, how does the melting point read?
Its melting point is 166 to 167 °C.

For O=C(c1cnn2c1N[C@H](c1ccccc1)C[C@@H]2C(F)(F)F)N(C1CCCCC1)C1CCCCC1 (stereo in doubt) [Example 373, N,N-dicyclohexyl-5-phenyl-7-(trifluoromethyl)-4,5,6,7-tetrahydropyrazolo[1,5-a]pyrimidine-3-carboxamide], which melting point is on record?
The melting point was 243 to 244 °C.

Which melting point does the source give for CCCC(CC)(CC)NC(=O)c1c(C)nn2c1NC(c1ccccc1)CC2(C)C (stereo not shown) (as salt: HCl) [Example 838, N-(1,1-diethylbutyl)-2,7,7-trimethyl-5-phenyl-4,5,6,7-tetrahydropyrazolo[1,5-a]pyrimidine-3-carboxamide] here?
The melting point was 176 to 177 °C.

For O=C(NC1(C(=O)N2CCOCC2)CCCCC1)c1cnn2c1N[C@H](c1ccccc1)C[C@@H]2C(F)(F)F [Example 370], which melting point is on record?
The melting point was 290 to 291 °C.

For Cc1nn2c(c1C(=O)NC(C)(C)c1ccc(Cl)cc1)NC(c1ccccc1)CC2(C)C (stereo not shown) (as salt: HCl) [Example 792, N-(1-(4-chlorophenyl)-1-methylethyl)-2,7,7-trimethyl-5-phenyl-4,5,6,7-tetrahydropyrazolo[1,5-a]pyrimidine-3-carboxamide], which melting point is on record?
Its melting point is 204 to 205 °C.

With CCOC(=O)COc1ccc(C(CC)(CC)NC(=O)c2cnn3c2NC(c2ccccc2)CC3(C)C)cc1 (stereo not shown) [Example 730, ethyl (4-(1-(((7,7-dimethyl-5-phenyl-4,5,6,7-tetrahydropyrazolo[1,5-a]pyrimidin-3-yl)carbonyl)amino)-1-ethylpropyl)phenoxy)acetate] as the compound, how does the melting point read?
The melting point was 178 to 179 °C.

For C=Cc1ccc(C(CC)(CC)NC(=O)c2cnn3c2NC(c2ccccc2)CC3(C)C)cc1 (stereo not shown) [Example 645, N-(1-ethyl-1-(4-vinylphenyl)propyl)-7,7-dimethyl-5-phenyl-4,5,6,7-tetrahydropyrazolo[1,5-a]pyrimidine-3-carboxamide], which melting point is on record?
Its melting point is 155 to 156 °C.

With CCC(CC)(NC(=O)c1cnn2c1NC(c1ccccc1)CC2(CC)CC)c1ccc(C(F)(F)F)cc1 (stereo not shown) [Example 185, 7,7-diethyl-N-(1-ethyl-1-(4-(trifluoromethyl)phenyl)propyl)-5-phenyl-4,5,6,7-tetrahydropyrazolo[1,5-a]pyrimidine-3-carboxamide] as the compound, how does the melting point read?
The melting point was 174 to 175 °C.

For CCOC(=O)CCCCOc1ccc(C(CC)(CC)NC(=O)c2cnn3c2NC(c2ccccc2)CC3(C)C)cc1 (stereo not shown) [Example 817, ethyl 5-(4-(1-(((7,7-dimethyl-5-phenyl-4,5,6,7-tetrahydropyrazolo[1,5-a]pyrimidin-3-yl)carbonyl)amino)-1-ethyl-propyl)phenoxy)pentanoate], which melting point is on record?
The melting point was 120 to 121 °C.

Which melting point does the source give for CCCC1(NC(=O)c2cnn3c2NC(c2ccccc2)CC3(C)C)CCCCC1 (stereo not shown) [Example 619, 7,7-dimethyl-5-phenyl-N-(1-propylcyclohexyl)-4,5,6,7-tetrahydropyrazolo[1,5-a]pyrimidine-3-carboxamide] here?
The melting point was 152 to 153 °C.

For CCC(CC)(NC(=O)c1cnn2c1NC(c1ccccc1)CC2(C)C)c1ccc(C(C)(C)C)cc1 (stereo not shown) [Example 417, N-(1-(4-tert-butylphenyl)-1-ethylpropyl)-7,7-dimethyl-5-phenyl-4,5,6,7-tetrahydropyrazolo[1,5-a]pyrimidine-3-carboxamide], which melting point is on record?
The melting point was 196 to 197 °C.

With CCC(CC)(NC(=O)c1cnn2c1NC(c1ccc(OC)cc1)CC2(C)C)c1ccc(C)cc1 (stereo not shown) (as salt: HCl) [Example 960, N-[1-ethyl-1-(4-methylphenyl)propyl]-5-(4-methoxyphenyl)-7,7-dimethyl-4,5,6,7-tetrahydropyrazolo[1,5-a]pyrimidine-3-carboxamide] as the compound, how does the melting point read?
The melting point was 188 to 189 °C.

Which melting point does the source give for Cc1ccc(C2CC(C)(C)n3ncc(C(=O)O)c3N2)c(C)c1 (stereo not shown) [Example 952, 5-(2,4-dimethylphenyl)-7,7-dimethyl-4,5,6,7-tetrahydropyrazolo[1,5-a]pyrimidine-3-carboxylic acid] here?
Its melting point is 155 to 157 °C.

Which melting point does the source give for CCC(CC)(NC(=O)c1cnn2c1NC(c1ccccc1)CC2(C)C)c1ccc(-c2ccoc2)cc1 (stereo not shown) [Example 585, N-(1-ethyl-1-(4-(3-furyl)phenyl)propyl)-7,7-dimethyl-5-phenyl-4,5,6,7-tetrahydropyrazolo[1,5-a]pyrimidine-3-carboxamide] here?
The melting point was 185 to 186 °C.

For CCc1ccc(C(CC)(CC)NC(=O)c2cnn3c2NC(c2ccccc2)CC3(C)C)cc1 (stereo not shown) [Example 647, N-(1-ethyl-1-(4-ethylphenyl)propyl)-7,7-dimethyl-5-phenyl-4,5,6,7-tetrahydropyrazolo[1,5-a]pyrimidine-3-carboxamide], which melting point is on record?
The melting point was 156 to 157 °C.

Which melting point does the source give for CCC(CC)(NC(=O)c1cnn2c1N[C@@H](c1ccccc1)CC2(C)C)c1ccc(CO)cc1 (as salt: HCl) [Example 1077, (5R)-N-(1-ethyl-1-(4-(hydroxymethyl)phenyl)propyl)-7,7-dimethyl-5-phenyl-4,5,6,7-tetrahydropyrazolo[1,5-a]pyrimidine-3-carboxamide] here?
Its melting point is 159 to 160 °C.

For CCC(CC)(NC(=O)c1cnn2c1NC(c1ccccc1)CC2(C)C)c1ccc(I)cc1 (stereo not shown) [Example 667, N-(1-ethyl-1-(4-iodophenyl)propyl)-7,7-dimethyl-5-phenyl-4,5,6,7-tetrahydropyrazolo[1,5-a]pyrimidine-3-carboxamide], which melting point is on record?
The melting point was 182 to 183 °C.

Which melting point does the source give for CCC(CC)(NC(=O)c1cnn2c1NC(c1ccc(F)cc1F)CC2(C)C)c1ccc(C(F)(F)F)cc1 (stereo not shown) [Example 694, 5-(2,4-difluorophenyl)-N-(1-ethyl-1-(4-(trifluoro-methyl)phenyl)propyl)-7,7-dimethyl-4,5,6,7-tetrahydropyrazolo[1,5-a]pyrimidine-3-carboxamide] here?
The melting point was 198 to 199 °C.

For O=C(c1cnn2c1NC(c1ccccc1)CC2C(F)(F)F)N1CCc2nn(-c3ccc(Cl)cc3)cc2C1 (stereo not shown) [Example 275, 2-(4-chlorophenyl)-5-((5-phenyl-7-(trifluoromethyl)-4,5,6,7-tetrahydropyrazolo[1,5-a]pyrimidin-3-yl)carbonyl)-4,5,6,7-tetrahydro-2H-pyrazolo[4,3-c]pyridine], which melting point is on record?
Its melting point is 183 to 184 °C.

With COc1ccc(C2CC(C(F)(F)F)n3ncc(C(=O)NC45CC6CC(CC(C6)C4)C5)c3N2)cc1 (stereo not shown) [Example 202, N-(1-adamantyl)-5-(4-methoxyphenyl)-7-(trifluoromethyl)-4,5,6,7-tetrahydropyrazolo[1,5-a]pyrimidine-3-carboxamide] as the compound, how does the melting point read?
The melting point was 241 to 243 °C.

With CCC(CC)(NC(=O)c1cnn2c1NC(c1ccccc1)C1CCCCC12)c1ccc(C(F)(F)F)cc1 (stereo not shown) [Example 201, N-(1-ethyl-1-(4-(trifluoromethyl)phenyl)propyl)-5-phenyl-4,5,5a,6,7,8,9,9a-octahydropyrazolo[1,5-a]quinazoline-3-carboxamide] as the compound, how does the melting point read?
The melting point was 213 to 214 °C.

With CCC(CC)(NC(=O)c1cnn2c1NC(c1cccc(OC)c1)CC2(C)C)c1ccc(C)cc1 (stereo not shown) (as salt: HCl) [Example 820, N-(1-ethyl-1-(4-methylphenyl)propyl)-5-(3-methoxyphenyl)-7,7-dimethyl-4,5,6,7-tetrahydropyrazolo[1,5-a]pyrimidine-3-carboxamide] as the compound, how does the melting point read?
The melting point was 168 to 169 °C.
